# Test results published in PMC5556071, “ATR inhibition facilitates targeting of leukemia dependence on convergent nucleotide biosynthetic pathways” (Nature Communications, 2017).
# Key:
# ATR = tested on: ATR; set-up: method as in earlier work; settings: ref #35, Fokas et al., 2014; cited from earlier work
# dCK pS74 = test: Phosphoproteomic nLC-MS/MS analysis of dCK phosphorylation; type: cell-based, human; set-up: key to dCK pS74: ↓: partial decrease/inhibition; ↓↓↓: nearly complete inhibition; ↑: increase; ⟷: no change
# Protocol: against both the Uniprot human FASTA database and a decoy database of the Uniprot human database which read from C-terminus to N-terminus; Percolator was used to filter the data at 1% FDR at both the peptide and […]
# Phosphoproteomic analyses. CCRF-CEM cells were prepared same as the asynchronous CEM cells total protein digests above, except that a total of 7.5 mg total protein from 1 x 10^8 cells was collected per treatment condition for phosphoproteomic analysis. tC18 Sep-Pak cartridges (Waters) were used for peptide desalting and Pierce Quantitative Colorimetric Peptide Assay was performed prior to phosphopeptide enrichment.
# Hydrophilic interaction chromatography (HILIC) and immobilized metal affinity chromatography (IMAC) were performed same as previously described4. Data dependent nLC-MS/MS was performed on Thermo QExactive Plus same as above. […] Identified phosphopeptides were manually quantified by area-based extracted ion chromatograms of the monoisotopic peak. […]
# CHEK1 pS345 = test: Western blot of replication stress marker in CEM cells; type: cell-based, human
# Protocol: Cells were lysed using RIPA buffer supplemented with protease (ThermoFisher, 78,430) and phosphatase (ThermoFisher, 78,420) inhibitors, scraped, sonicated, and centrifuged (20,000 × g at 4 °C). Protein concentrations in the supernatant were determined using the Micro BCA Protein Assay kit (Thermo), and equal amounts of protein were resolved on pre-made Bis-Tris polyacrylamide gels (Life Technologies). Primary antibodies: pS345 CHEK1 (Cell signaling, #2348 L, 1:1000), pT68 CHEK2 (Cell signaling, #2197 S, 1:1000), pS139 H2A.X (Millipore, 05-636, 1:1000), clvd. Casp8 (Cell signaling, #8592, 1:1000), clvd. Casp9 (Cell signaling, #9502, 1:1000), clvd. Casp3 (Cell signaling, #9662, 1:1000), clvd. PARP (Cell signaling, #5625 P, 1:1000), and anti-actin (Cell Signaling Technology, 9470, 1:10,000). Primary antibodies were stored in 5% BSA (Sigma-Aldrich) and 0.1% NaN3 in TBST solution. Anti-rabbit IgG HRP-linked (Cell Signaling Technology, 7074, 1:2500) and anti-mouse IgG HRP-linked (Cell Signaling Technology, 7076, 1:2500) were used as secondary antibodies. Chemiluminescent substrates (ThermoFisher Scientific, 34,077 and 34,095) and autoradiography film (Denville) were used for detection.
smiles,measurement,setting,value
CNCc1ccc(-c2cc(-c3nc(-c4ccc(S(=O)(=O)C(C)C)cc4)cnc3N)on2)cc1 [VE-822],cellular selectivity for ATR compared to other members of the PIKK family (including ATM and DNA-PK),ATR,> 100 fold
same,decrease in dCK pS74 (fold),dCK pS74; VE-822-treated leukemia cells,two-fold
same,dCK pS74,"dCK pS74; summary Fig. 2g, CEM cells",↓
same,CHEK1 pS345 induced by RNR inhibition,CHEK1 pS345; 0.5 h time point,abrogated
same,CHEK1 pS345 induced by RNR inhibition,CHEK1 pS345; 4 h time point,partially inhibited
same,CHEK1 pS345 levels,"CHEK1 pS345; CEM cells, VE-822 1 µM, 24 h",reduced
